From paper PMC8119466, “A screen of FDA-approved drugs identifies inhibitors of protein tyrosine phosphatase 4A3 (PTP4A3 or PRL-3)” (Scientific Reports, 2021)
Counter-ions that a name gives are not always drawn. Like-named read-outs stand apart in the source and are kept apart here. Blank lines part the entries; values can stand above or below the compound they belong to.

Tests used:
Type in all cases: biochemical
recombinant PRL-1 = molecular target: T1, recombinant PRL-1 (Homo sapiens, UniProt Q93096); assay: In vitro phosphatase assay (DiFMUP hydrolysis), PRL-1; further: test concentration or dose not given here
T1 construct: 6xHis (N, cleaved yes); made in house; host or cells: E. coli One Shot BL21 Star
T1 sequence (Q93096 1-173): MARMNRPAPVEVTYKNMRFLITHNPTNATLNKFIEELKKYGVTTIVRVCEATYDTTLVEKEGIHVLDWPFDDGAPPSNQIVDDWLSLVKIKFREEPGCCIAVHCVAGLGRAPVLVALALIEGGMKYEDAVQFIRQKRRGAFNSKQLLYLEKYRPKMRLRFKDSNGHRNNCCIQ

recombinant PRL-2 = molecular target: T2, recombinant PRL-2 (Homo sapiens, UniProt Q12974); assay: In vitro phosphatase assay (DiFMUP hydrolysis), PRL-2;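 further: PRL-2 activity read as DiFMUP hydrolysis after 20 min at room temperature with drug, enzyme first pre-reduced at 4 °C for 20 min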
T2 construct: 6xHis (N, cleaved yes); made in house; host or cells: E. coli One Shot BL21 Star
T2 sequence (Q12974 1-167): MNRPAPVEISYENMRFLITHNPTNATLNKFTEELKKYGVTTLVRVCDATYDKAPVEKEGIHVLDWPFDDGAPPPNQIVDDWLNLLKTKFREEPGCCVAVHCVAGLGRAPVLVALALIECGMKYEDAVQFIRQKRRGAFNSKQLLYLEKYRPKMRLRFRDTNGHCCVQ

recombinant PRL-3 = molecular target: T3, recombinant PRL-3 (Homo sapiens, UniProt O75365); assay: In vitro phosphatase assay (DiFMUP hydrolysis), PRL-3; further: test concentration or dose not given here
T3 construct: 6xHis (N, cleaved yes); made in house; host or cells: E. coli One Shot BL21 Star
T3 sequence (O75365 whole entry): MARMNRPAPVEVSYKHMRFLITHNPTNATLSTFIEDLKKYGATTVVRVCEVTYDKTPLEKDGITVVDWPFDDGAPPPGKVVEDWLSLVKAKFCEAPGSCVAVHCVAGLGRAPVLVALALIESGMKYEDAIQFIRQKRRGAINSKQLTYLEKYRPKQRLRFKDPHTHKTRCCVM

[1] = FDA-approved drug screen, compared to DMSO

SMILES: C=CC[N+]1([C@H]2C[C@H]3[C@@H]4CC[C@H]5C[C@H](O)[C@@H](N6CCOCC6)C[C@]5(C)[C@H]4CC[C@]3(C)[C@H]2OC(C)=O)CCCC1 [Rocuronium Bromide]
% Phosphatase Activity (compared to DMSO) PRL-1 (recombinant PRL-1; [1]): 100%
% Phosphatase Activity (compared to DMSO) PRL-2 (recombinant PRL-2; [1]): 106%
% Phosphatase Activity (compared to DMSO) PRL-3 (recombinant PRL-3; [1]): 90%

SMILES: Cn1c([N+](=O)[O-])cnc1COC(N)=O [Ronidazole]
% Phosphatase Activity (compared to DMSO) PRL-1 (recombinant PRL-1; [1]): 86%
% Phosphatase Activity (compared to DMSO) PRL-2 (recombinant PRL-2; [1]): 95%
% Phosphatase Activity (compared to DMSO) PRL-3 (recombinant PRL-3; [1]): 62%

SMILES: CCCN(CCC)CCc1cccc2c1CC(=O)N2 [Ropinirole HCl]
% Phosphatase Activity (compared to DMSO) PRL-1 (recombinant PRL-1; [1]): 103%
% Phosphatase Activity (compared to DMSO) PRL-2 (recombinant PRL-2; [1]): 122%
% Phosphatase Activity (compared to DMSO) PRL-3 (recombinant PRL-3; [1]): 78%

SMILES: CC[C@H](CO)Nc1nc(NCc2ccccc2)c2ncn(C(C)C)c2n1 [Roscovitine (Seliciclib,CYC202)]
% Phosphatase Activity (compared to DMSO) PRL-1 (recombinant PRL-1): 108%
% Phosphatase Activity (compared to DMSO) PRL-2 (recombinant PRL-2): 111%
% Phosphatase Activity (compared to DMSO) PRL-3 (recombinant PRL-3): 96%

SMILES: CN(CCOc1ccc(CC2SC(=O)NC2=O)cc1)c1ccccn1.Cl (stereo not drawn) [Rosiglitazone HCl]
% Phosphatase Activity (compared to DMSO) PRL-1 (recombinant PRL-1; [1]): 103%
% Phosphatase Activity (compared to DMSO) PRL-2 (recombinant PRL-2; [1]): 116%
% Phosphatase Activity (compared to DMSO) PRL-3 (recombinant PRL-3; [1]): 79%

SMILES: CN(CCOc1ccc(CC2SC(=O)NC2=O)cc1)c1ccccn1 (stereo not drawn) [Rosiglitazone maleate]
% Phosphatase Activity (compared to DMSO) PRL-1 (recombinant PRL-1; [1]): 104%
% Phosphatase Activity (compared to DMSO) PRL-2 (recombinant PRL-2; [1]): 113%
% Phosphatase Activity (compared to DMSO) PRL-3 (recombinant PRL-3; [1]): 87%

SMILES: CN(CCOc1ccc(CC2SC(=O)NC2=O)cc1)c1ccccn1 (stereo not drawn) [Rosiglitazone]
% Phosphatase Activity (compared to DMSO) PRL-1 (recombinant PRL-1; [1]): 90%
% Phosphatase Activity (compared to DMSO) PRL-2 (recombinant PRL-2; [1]): 111%
% Phosphatase Activity (compared to DMSO) PRL-3 (recombinant PRL-3; [1]): 79%

SMILES: CC(=O)OCC(=O)NCCCOc1cccc(CN2CCCCC2)c1 [Roxatidine Acetate HCl]
% Phosphatase Activity (compared to DMSO) PRL-1 (recombinant PRL-1; [1]): 96%
% Phosphatase Activity (compared to DMSO) PRL-2 (recombinant PRL-2; [1]): 111%
% Phosphatase Activity (compared to DMSO) PRL-3 (recombinant PRL-3; [1]): 95%

SMILES: CC[C@H]1OC(=O)[C@H](C)[C@@H](O[C@H]2C[C@@](C)(OC)[C@@H](O)[C@H](C)O2)[C@H](C)[C@@H](O[C@@H]2O[C@H](C)C[C@H](N(C)C)[C@H]2O)[C@](C)(O)C[C@@H](C)/C(=N\OCOCCOC)[C@H](C)[C@@H](O)[C@]1(C)O [Roxithromycin]
% Phosphatase Activity (compared to DMSO) PRL-1 (recombinant PRL-1; [1]): 93%
% Phosphatase Activity (compared to DMSO) PRL-2 (recombinant PRL-2; [1]): 105%
% Phosphatase Activity (compared to DMSO) PRL-3 (recombinant PRL-3; [1]): 70%

SMILES: CNCc1ccc(-c2[nH]c3cc(F)cc4c3c2CCNC4=O)cc1 [Rucaparib (AG-014699,PF-01367338)]
% Phosphatase Activity (compared to DMSO) PRL-1 (recombinant PRL-1; [1]): 2402%
% Phosphatase Activity (compared to DMSO) PRL-2 (recombinant PRL-2; [1]): 3226%
% Phosphatase Activity (compared to DMSO) PRL-3 (recombinant PRL-3; [1]): 2134%

SMILES: Cc1cncc(CN2CCC(=C3c4ccc(Cl)cc4CCc4cccnc43)CC2)c1.O=C(O)/C=C/C(=O)O [Rupatadine Fumarate]
% Phosphatase Activity (compared to DMSO) PRL-1 (recombinant PRL-1; [1]): 92%
% Phosphatase Activity (compared to DMSO) PRL-2 (recombinant PRL-2; [1]): 100%
% Phosphatase Activity (compared to DMSO) PRL-3 (recombinant PRL-3; [1]): 98%

Next, values leading:

% Phosphatase Activity (compared to DMSO) PRL-1 (recombinant PRL-1; [1]): 102%
% Phosphatase Activity (compared to DMSO) PRL-2 (recombinant PRL-2; [1]): 98%
% Phosphatase Activity (compared to DMSO) PRL-3 (recombinant PRL-3; [1]): 97%
SMILES: O=C(CCCCCCNC(=O)c1cnc(N(c2ccccc2)c2ccccc2)nc1)NO [Rocilinostat (ACY-1215)]

% Phosphatase Activity (compared to DMSO) PRL-1 (recombinant PRL-1; [1]): 110%
% Phosphatase Activity (compared to DMSO) PRL-2 (recombinant PRL-2; [1]): 120%
% Phosphatase Activity (compared to DMSO) PRL-3 (recombinant PRL-3; [1]): 92%
SMILES: CS(=O)(=O)c1ccc(C2=C(c3ccccc3)C(=O)OC2)cc1 [Rofecoxib]

% Phosphatase Activity (compared to DMSO) PRL-1 (recombinant PRL-1; [1]): 107%
% Phosphatase Activity (compared to DMSO) PRL-2 (recombinant PRL-2; [1]): 101%
% Phosphatase Activity (compared to DMSO) PRL-3 (recombinant PRL-3; [1]): 87%
SMILES: O=C(Nc1c(Cl)cncc1Cl)c1ccc(OC(F)F)c(OCC2CC2)c1 [Roflumilast]

% Phosphatase Activity (compared to DMSO) PRL-1 (recombinant PRL-1; [1]): 99%
% Phosphatase Activity (compared to DMSO) PRL-2 (recombinant PRL-2; [1]): 104%
% Phosphatase Activity (compared to DMSO) PRL-3 (recombinant PRL-3; [1]): 77%
SMILES: COc1ccc(C2CNC(=O)C2)cc1OC1CCCC1 (stereo not drawn) [Rolipram]

% Phosphatase Activity (compared to DMSO) PRL-1 (recombinant PRL-1; [1]): 100%
% Phosphatase Activity (compared to DMSO) PRL-2 (recombinant PRL-2; [1]): 110%
% Phosphatase Activity (compared to DMSO) PRL-3 (recombinant PRL-3; [1]): 80%
SMILES: CCCN1CCCC[C@H]1C(=O)Nc1c(C)cccc1C [Ropivacaine HCl]

% Phosphatase Activity (compared to DMSO) PRL-1 (recombinant PRL-1; [1]): 107%
% Phosphatase Activity (compared to DMSO) PRL-2 (recombinant PRL-2; [1]): 99%
% Phosphatase Activity (compared to DMSO) PRL-3 (recombinant PRL-3; [1]): 83%
SMILES: CC(C)c1nc(N(C)S(C)(=O)=O)nc(-c2ccc(F)cc2)c1/C=C/[C@@H](O)C[C@@H](O)CC(=O)O [Rosuvastatin Calcium]

% Phosphatase Activity (compared to DMSO) PRL-1 (recombinant PRL-1; [1]): 100%
% Phosphatase Activity (compared to DMSO) PRL-2 (recombinant PRL-2; [1]): 99%
% Phosphatase Activity (compared to DMSO) PRL-3 (recombinant PRL-3; [1]): 82%
SMILES: CCCN(CCc1cccs1)[C@H]1CCc2c(O)cccc2C1 [Rotigotine]

% Phosphatase Activity (compared to DMSO) PRL-1 (recombinant PRL-1; [1]): 91%
% Phosphatase Activity (compared to DMSO) PRL-2 (recombinant PRL-2; [1]): 91%
% Phosphatase Activity (compared to DMSO) PRL-3 (recombinant PRL-3; [1]): 77%
SMILES: NC(=O)c1cn(Cc2c(F)cccc2F)nn1 [Rufinamide]
